Measurements: patent US10160747B2, “Compounds and methods for kinase modulation, and indications therefor” (Plexxikon Inc., priority 2016, dated 2018)

Tests used:
[1] = tested on: MOLM-14 F691L (endogenous FLT3 ITD and transfected FLT3 F691L); experiment: MOLM-14 F691L cell proliferation assay (CellTiter-Glo); assay type: cell-based; conditions: Homo sapiens, MOLM-14, 72 h; 3 d growth, GMean
In short: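 Three-day proliferation at 37 °C/5% CO2 of FLT3-ITD MOLM-14 lines with D835Y or F691L mutation, seeded 1×10^4 per well. Compounds at eight points, top 1 μM final, 0.2% DMSO. ATP luminescence (CellTiter-Glo) gives IC50.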

[2] = molecular target: T1, BA/F3-FLT3-ITD + D835Y (Homo sapiens, UniProt P36888, D835Y, cells depend on it, form not given); experiment: Engineered BA/F3 cell growth assay, FLT3 ITD/D835Y; assay type: cell-based, murine; conditions: 3 d growth
T1 sequence (P36888 with tags, fused parts or gaps INS600HVDFREYEYD/D835Y): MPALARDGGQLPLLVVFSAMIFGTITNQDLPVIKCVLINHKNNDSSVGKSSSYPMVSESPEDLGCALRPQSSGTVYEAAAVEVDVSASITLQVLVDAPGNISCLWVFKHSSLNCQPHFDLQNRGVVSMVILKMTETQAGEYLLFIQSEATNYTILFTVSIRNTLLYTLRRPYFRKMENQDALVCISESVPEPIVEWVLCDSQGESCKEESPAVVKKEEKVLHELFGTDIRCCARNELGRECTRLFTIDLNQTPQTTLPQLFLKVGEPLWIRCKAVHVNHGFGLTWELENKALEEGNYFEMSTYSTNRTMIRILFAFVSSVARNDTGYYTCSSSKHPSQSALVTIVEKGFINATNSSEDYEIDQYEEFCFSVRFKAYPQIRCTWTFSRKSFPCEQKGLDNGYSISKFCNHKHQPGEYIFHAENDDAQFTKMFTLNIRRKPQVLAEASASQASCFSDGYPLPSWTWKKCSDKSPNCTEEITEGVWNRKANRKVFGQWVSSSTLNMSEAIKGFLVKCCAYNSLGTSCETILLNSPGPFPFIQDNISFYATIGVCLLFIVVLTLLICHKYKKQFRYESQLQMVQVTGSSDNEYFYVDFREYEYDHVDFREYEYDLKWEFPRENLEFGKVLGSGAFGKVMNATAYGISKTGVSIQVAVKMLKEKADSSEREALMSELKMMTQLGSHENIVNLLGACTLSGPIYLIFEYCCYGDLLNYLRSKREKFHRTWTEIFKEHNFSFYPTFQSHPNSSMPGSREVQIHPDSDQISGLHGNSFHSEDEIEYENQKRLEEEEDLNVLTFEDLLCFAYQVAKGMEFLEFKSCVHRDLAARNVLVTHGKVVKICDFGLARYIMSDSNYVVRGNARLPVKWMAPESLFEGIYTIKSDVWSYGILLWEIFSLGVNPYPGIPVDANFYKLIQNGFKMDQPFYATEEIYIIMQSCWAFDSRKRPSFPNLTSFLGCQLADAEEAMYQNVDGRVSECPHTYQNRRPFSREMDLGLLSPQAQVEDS
In short: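 IC50 derived from CellTiter-Glo ATP luminescence after 3 days at 37 °C, 5% CO2, over eight 1:3 dilutions from 1 μM (0.2% DMSO final). Cells: IL-3-independent murine Ba/F3 expressing full-length FLT3 ITD/D835Y, 1×10^4 per well.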

Row | IC50 [1] | GI50 [2] | Compound
1 | 0.0001 to 10 µM | 0.0001 to 10 µM | Cn1cc(Nc2ncc(-c3ccc(CC(=O)Nc4ccnc(C5CC5)c4)cc3)cn2)cn1 [Compound P-0097, N-(2-cyclopropyl-4-pyridyl)-2-[4-[2-[(1-methylpyrazol-4-yl)amino]pyrimidin-5-yl]phenyl]acetamide]
2 | 0.0001 to 10 µM | 0.0001 to 10 µM | Cn1cc(Nc2ncc(-c3ccc(CC(=O)Nc4ccnc(C(F)(F)F)n4)cc3)cn2)cn1 [Compound P-0137, 2-[4-[2-[(1-methylpyrazol-4-yl)amino]pyrimidin-5-yl]phenyl]-N-[2-(trifluoromethyl)pyrimidin-4-yl]acetamide]
3 | 0.0001 to 10 µM | 0.0001 to 10 µM | Cn1cc(Nc2ncc(-c3ccc(CC(=O)Nc4ccc(C(C)(C)C#N)nc4)c(F)c3)cn2)cn1 [Compound P-0108, N-[6-(1-cyano-1-methyl-ethyl)-3-pyridyl]-2-[2-fluoro-4-[2-[(1-methylpyrazol-4-yl)amino]pyrimidin-5-yl]phenyl]acetamide]
4 | 0.0001 to 10 µM | 0.0001 to 10 µM | COCCn1cc(Nc2ncc(-c3ccc(CC(=O)Nc4cnc(C)c(C(F)(F)F)c4)cc3)cn2)cn1 [Compound P-0179, 2-[4-[2-[[1-(2-methoxyethyl)pyrazol-4-yl]amino]pyrimidin-5-yl]phenyl]-N-[6-methyl-5-(trifluoromethyl)-3-pyridyl]acetamide]
5 | 0.0001 to 10 µM | 0.0001 to 10 µM | Cn1cc(Nc2ncc(-c3ccc(CC(=O)Nc4cncc(C(F)(F)F)c4)cc3)cn2)cn1 [Compound P-0136, 2-[4-[2-[(1-methylpyrazol-4-yl)amino]pyrimidin-5-yl]phenyl]-N-[5-(trifluoromethyl)-3-pyridyl]acetamide]
6 | 0.0001 to 10 µM | 0.0001 to 10 µM | Cn1cc(Nc2ncc(-c3ccc(CC(=O)Nc4ccc(C(C)(C)C#N)nc4)cc3)cn2)cn1 [Compound P-0146, N-[6-(1-cyano-1-methyl-ethyl)-3-pyridyl]-2-[4-[2-[(1-methylpyrazol-4-yl)amino]pyrimidin-5-yl]phenyl]acetamide]
7 | 0.0001 to 10 µM | 0.0001 to 10 µM | CCn1cc(Nc2ncc(-c3ccc(CC(=O)Nc4cnc(Cl)c(C(F)(F)F)c4)cc3)cn2)cn1 [Compound P-0165, N-[6-chloro-5-(trifluoromethyl)-3-pyridyl]-2-[4-[2-[(1-ethylpyrazol-4-yl)amino]pyrimidin-5-yl]phenyl]acetamide]
8 | 0.0001 to 10 µM | 0.0001 to 10 µM | Cc1ncc(NC(=O)Cc2ccc(-c3cnc(Nc4cn(C)cn4)nc3)cc2F)cc1C(F)(F)F [Compound P-0099, 2-[2-fluoro-4-[2-[(1-methylimidazol-4-yl)amino]pyrimidin-5-yl]phenyl]-N-[6-methyl-5-(trifluoromethyl)-3-pyridyl]acetamide]
9 | 0.0001 to 10 µM | 0.0001 to 10 µM | Cn1cc(Nc2ncc(-c3ccc(CC(=O)NCc4cccnc4)cc3)cn2)cn1 [Compound P-0132, 2-[4-[2-[(1-methylpyrazol-4-yl)amino]pyrimidin-5-yl]phenyl]-N-(3-pyridylmethyl)acetamide]
10 | 0.0001 to 10 µM | 0.0001 to 10 µM | CCn1cc(Nc2ncc(-c3ccc(CC(=O)Nc4cncc(C(F)(F)F)c4)cc3)cn2)cn1 [Compound P-0166, 2-[4-[2-[(1-ethylpyrazol-4-yl)amino]pyrimidin-5-yl]phenyl]-N-[5-(trifluoromethyl)-3-pyridyl]acetamide]
11 | – | 0.0001 to 10 µM | Cn1cc(Nc2ncc(-c3ccc(CC(=O)Nc4cnnc(Cl)c4)cc3)cn2)cn1 [Compound P-0151, N-(6-chloropyridazin-4-yl)-2-[4-[2-[(1-methylpyrazol-4-yl)amino]pyrimidin-5-yl]phenyl]acetamide]
12 | – | 0.0001 to 10 µM | Cn1cnc(Nc2ncc(-c3ccc(CC(=O)Nc4cnc(F)c(C(C)(F)F)c4)cc3F)cn2)c1 [Compound P-0170, N-[5-(1,1-difluoroethyl)-6-fluoro-3-pyridyl]-2-[3-fluoro-4-[2-[(1-methylimidazol-4-yl)amino]pyrimidin-5-yl]phenyl]acetamide]
13 | – | 0.0001 to 10 µM | COc1cc(NC(=O)Cc2ccc(-c3cnc(Nc4cnn(C)c4)nc3)cc2)ccn1 [Compound P-0153, N-(2-methoxy-4-pyridyl)-2-[4-[2-[(1-methylpyrazol-4-yl)amino]pyrimidin-5-yl]phenyl]acetamide]

Further lines, the compound ahead of its results:

Row | Compound | IC50 [1] | GI50 [2]
14 | Cc1n[nH]c2ncc(-c3ccc(CC(=O)Nc4cncc(C(F)(F)F)c4)cc3F)cc12 [Compound P-0177, 2-[3-fluoro-4-(3-methyl-1H-pyrazolo[3,4-b]pyridin-5-yl)phenyl]-N-[5-(trifluoromethyl)-3-pyridyl]acetamide] | – | 0.0001 to 10 µM
15 | O=C(Cc1ccc(-c2cnc3[nH]c(-c4ccc(N5CCOCC5)nc4)cc3c2)c(F)c1)Nc1cncc(C(F)(F)F)c1 [Compound P-0198, 2-[3-fluoro-4-[2-(6-morpholino-3-pyridyl)-1H-pyrrolo[2,3-b]pyridin-5-yl]phenyl]-N-[5-(trifluoromethyl)-3-pyridyl]acetamide] | 0.0001 to 10 µM | 0.0001 to 10 µM
16 | O=C(Cc1ccc(-c2cnc3[nH]c(-c4ccc(N5CCOCC5)nc4)cc3c2)cn1)Nc1ccnc(C(F)(F)F)c1 [Compound P-0183, 2-[5-[2-(6-morpholino-3-pyridyl)-1H-pyrrolo[2,3-b]pyridin-5-yl]-2-pyridyl]-N-[2-(trifluoromethyl)-4-pyridyl]acetamide] | 0.0001 to 10 µM | 0.0001 to 10 µM
17 | COc1ncc(NC(=O)Cc2cc(F)c(-c3cnc4[nH]nc(C)c4c3)cc2F)cc1C(F)(F)F [Compound P-0176, 2-[2,5-difluoro-4-(3-methyl-1H-pyrazolo[3,4-b]pyridin-5-yl)phenyl]-N-[6-methoxy-5-(trifluoromethyl)-3-pyridyl]acetamide] | – | 0.0001 to 10 µM
18 | COc1ncc(NC(=O)Cc2ccc(-c3cnc4[nH]nc(C)c4c3)c(F)c2)cc1C(F)(F)F [Compound P-0174, 2-[3-fluoro-4-(3-methyl-1H-pyrazolo[3,4-b]pyridin-5-yl)phenyl]-N-[6-methoxy-5-(trifluoromethyl)-3-pyridyl]acetamide] | – | 0.0001 to 10 µM
19 | N#Cc1cc(-c2cc3cc(-c4ccc(CC(=O)Nc5cc(C(F)(F)F)ccn5)cc4F)cnc3[nH]2)ccn1 [Compound P-0194, 2-[4-[2-(2-cyano-4-pyridyl)-1H-pyrrolo[2,3-b]pyridin-5-yl]-3-fluoro-phenyl]-N-[4-(trifluoromethyl)-2-pyridyl]acetamide] | – | 0.0001 to 10 µM
20 | Cc1ncc(NC(=O)Cc2cc(F)c(-c3cnc4[nH]nc(C)c4c3)cc2F)cc1C(F)(F)F [Compound P-0175, 2-(2,5-difluoro-4-(3-methyl-1H-pyrazolo[3,4-b]pyridin-5-yl)phenyl)-N-(6-methyl-5-(trifluoromethyl)pyridin-3-yl)acetamide] | – | 0.0001 to 10 µM
21 | Cc1ncc(NC(=O)Cc2ccc(-c3cnc4[nH]nc(C)c4c3)c(F)c2)cc1C(F)(F)F [Compound P-0172, 2-[3-fluoro-4-(3-methyl-1H-pyrazolo[3,4-b]pyridin-5-yl)phenyl]-N-[6-methyl-5-(trifluoromethyl)-3-pyridyl]acetamide] | – | 0.0001 to 10 µM
22 | COc1ccc(-c2cc3cc(-c4ccc(CC(=O)Nc5cc(C(F)(F)F)ccn5)cc4F)cnc3[nH]2)cn1 [Compound P-0191, 2-[3-fluoro-4-[2-(6-methoxy-3-pyridyl)-1H-pyrrolo[2,3-b]pyridin-5-yl]phenyl]-N-[4-(trifluoromethyl)-2-pyridyl]acetamide] | – | 0.0001 to 10 µM
23 | N#Cc1ccc(-c2cc3cc(-c4ccc(CC(=O)Nc5cncc(C(F)(F)F)c5)cc4F)cnc3[nH]2)cn1 [Compound P-0195, 2-[4-[2-(6-cyano-3-pyridyl)-1H-pyrrolo[2,3-b]pyridin-5-yl]-3-fluoro-phenyl]-N-[5-(trifluoromethyl)-3-pyridyl]acetamide] | – | 0.0001 to 10 µM
24 | Cc1n[nH]c2ncc(-c3cc(F)c(CC(=O)Nc4cncc(C(F)(F)F)c4)cc3F)cc12 [Compound P-0173, 2-[2,5-difluoro-4-(3-methyl-1H-pyrazolo[3,4-b]pyridin-5-yl)phenyl]-N-[5-(trifluoromethyl)-3-pyridyl]acetamide] | – | 0.0001 to 10 µM
